According to patent US10307357B2, “Prebiotic oral care compositions containing an alkyl glycoside” (COLGATE-PALMOLIVE COMPANY, priority 2013, dated 2019):

Key:
Format in all cases: cell-based
Prevotella intermedia [1] = experiment: Phenotype microarray metabolic activity; conditions: control = 1
Procedure: (§1) The extent of metabolic activity of the tested bacteria in the presence of the above-mentioned glycosides after 24 hours and 48 hours was investigated through a high throughput phenotype microarray system (PM) for microbial cells (Biolog Inc.). Each PM can contain up to 95 different biochemical compounds (e.g. glycosides) that may act as substrates for bacteria as well as one negative control, not containing the substrates. Microarray plates were used in which the different wells of each plate were pre-loaded (by the manufacturer, Biolog Inc.) with different glycosides to be tested. Each bacterial species was tested using a separate microarray plate. Thus, a single bacterial species was tested with a variety of glycosides on each particular plate. The microarrays are based on redox technology, using cell respiration as a universal reporter. Active cell respiration results in the reduction of a tetrazolium dye and in the formation of a strong color—for example, when using the tetrazolium dye “Biolog Redox Dye Mix D”, the color changes from transparent/colorless to purple when the dye is reduced. The observation of this color change indicates which of the substrates improve the metabolic activity and health of the cells. Each bacterial species was collected from blood agar plates (incubated for 48 hours anaerobically at 37° C.) and transferred to an IF-0 Base inoculation fluid (Biolog Inc.), which is a nutritionally poor medium. The resulting cell suspension was adjusted to a transmittance of 42% (relative to the transmittance of the base inoculation fluid with no bacterial species present) at 492 nm using a BioRad SmartSpec 3000 Photometer (the adjustment being effected by adding either further inoculation fluid or further bacteria until the transmittance of 42% was achieved). A 1:5 dilution of this suspension was prepared by mixing 3 mL of the 42% transmittance cell suspension with […] of an inoculation fluid (which inoculation fluid was formed by mixing 11.6 mL sterile water, 62.5 mL IF-0 base inoculation fluid and 0.9 mL of the tetrazolium dye “Biolog Redox Dye mix D”), resulting in a final cell density which was equal to 85% transmittance using a BioRad SmartSpec 3000 Photometer. For each of the glycosides tested, the microarray plate (obtained from the supplier (Biolog Inc.) with glycosides already present in the relevant wells in powder form) was directly inoculated with 100 μL/well of this 85% transmittance cell suspension. All plates were incubated in an anaerobic atmosphere at 37° C. Color changes were measured spectrophotometrically at 492 nm (Thermo Scientific Multiskan Ascent) at 24 hrs and 48 hrs using the same plate at both time points. […] After 24 hrs and 48 hrs under continuous shaking in a Multiscan microplate reader, the optical density (OD) of the synthetic medium at 24 hours and 48 hours was measured (using the microplate reader) at a wavelength of 492 nm for each combination of bacterium/glycoside, and for each of their respective controls (i.e. which contained the particular bacterium but no glycosides). […] The experiment was carried out three times for each combination of bacterium with glycosides, with each repeat being carried out on a different day (thus providing three biological replicas). The controls were also carried out three times, as above. The values shown are the average (mean) of the three single values obtained (as detailed above) for each combination of bacterium with glycosides, at 24 hrs and at 48 hrs.

Streptococcus sanguinis [2] = experiment: Phenotype microarray metabolic activity; conditions: control = 1
Procedure: as §1

[3] = tested on: Aggregatibacter actinomycetemcomitans; experiment: Twenty-four hour optical density growth in BHI; conditions: over 24 hours, control = 1
Procedure: (§2) The extent of growth of the tested bacteria in response to selected glycosides (β-methyl-D-galactoside and α-methyl-D-galactoside) was investigated by setting up growth curves in a nutritionally rich medium (brain heart infusion broth (BHI), Oxoid), over 24 hours. Late exponential growth phase liquid cultures were prepared by transferring the respective bacterium from blood agar plates to BHI and overnight incubation at 37° C. in an anaerobic atmosphere for A. viscosus, V. parvula, F. nucleatum, P. gingivalis, P. intermedia, T. forsythia, A. naeslundii, and C. sputigena, and in a 5% CO2 environment for S. salivarius, S. sanguinis, S. mitis, A. actinomycetemcomitans, S. mutans, S. sobrinus and S. gordonii. Overnight cultures were transferred to BHI and adjusted to a concentration of 1×10^7 CFU/ml (colony forming units per ml) by measuring the optical density at 600 nm (OD600) (BioRad SmartSpec 3000). For each strain, 200 μl of the bacterial suspension was added to a 96-well plate containing 20 μl of the respective glycosides. Final concentrations of the glycosides were set to 5, 10, 20 and 25 μmol/ml. […] Plates were incubated as previously described. For each combination of bacterium/glycoside, and for each of their respective controls (i.e. the particular bacterium in the nutritionally rich medium with no glycoside), the optical density was measured at 630 nm (OD630) at 0 h and 24 h (Thermo Scientific Multiskan Ascent). Additionally, the OD630 for combinations of bacterium/glycosides grown in a 5% CO2 environment were also measured every hour between 0 h and 9 h. […] The experiment was carried out on three different days (thus providing 3 biological replicas) and on each day the experiment was carried out in quadruple (thus providing 4 technical replicas) for each combination of bacterium with glycoside and for each control. For each day and for each combination, the average (mean) of the values obtained (as detailed above) for the four technical replicas was calculated to provide a single value for each combination on each day. The values shown in Tables 5 to 6, below, are the average (mean) of the three single values obtained for each combination of bacterium with glycoside (α-Methyl-D-Galactoside=α-MDG; β-Methyl-D-Galactoside=β-MDG).

Prevotella intermedia [4] = experiment: Twenty-four hour optical density growth in BHI; conditions: over 24 hours, control = 1
Procedure: as §2

Streptococcus mitis = experiment: Twenty-four hour optical density growth in BHI; conditions: over 24 hours, control = 1
Procedure: as §2

Streptococcus mutans = experiment: Twenty-four hour optical density growth in BHI; conditions: over 24 hours, control = 1
Procedure: as §2

Streptococcus sanguinis [5] = experiment: Twenty-four hour optical density growth in BHI; conditions: over 24 hours, control = 1
Procedure: as §2

Streptococcus sobrinus = experiment: Twenty-four hour optical density growth in BHI; conditions: over 24 hours, control = 1
Procedure: as §2

Tannerella forsythia = experiment: Twenty-four hour optical density growth in BHI; conditions: over 24 hours, control = 1
Procedure: as §2

Veillonella parvula = experiment: Twenty-four hour optical density growth in BHI; conditions: over 24 hours, control = 1
Procedure: as §2

Structure (SMILES)	OD 492 nm divided by control (metabolic activity) (Prevotella intermedia [1]; 24 hrs)	OD 492 nm divided by control (metabolic activity) (Prevotella intermedia [1]; 48 hrs)	OD 492 nm divided by control (metabolic activity) (Streptococcus sanguinis [2]; 24 hrs)	OD 492 nm divided by control (metabolic activity) (Streptococcus sanguinis [2]; 48 hrs)	maximal OD630 divided by control (extent of growth) ([3]; 5 μmol/ml)	maximal OD630 divided by control (extent of growth) ([3]; 10 μmol/ml)	maximal OD630 divided by control (extent of growth) ([3]; 20 μmol/ml)	maximal OD630 divided by control (extent of growth) ([3]; 25 μmol/ml)	maximal OD630 divided by control (extent of growth) (Prevotella intermedia [4]; 5 μmol/ml)	maximal OD630 divided by control (extent of growth) (Prevotella intermedia [4]; 10 μmol/ml)	maximal OD630 divided by control (extent of growth) (Prevotella intermedia [4]; 20 μmol/ml)	maximal OD630 divided by control (extent of growth) (Prevotella intermedia [4]; 25 μmol/ml)	maximal OD630 divided by control (extent of growth) (Streptococcus mitis; 5 μmol/ml)	maximal OD630 divided by control (extent of growth) (Streptococcus mitis; 10 μmol/ml)	maximal OD630 divided by control (extent of growth) (Streptococcus mitis; 20 μmol/ml)	maximal OD630 divided by control (extent of growth) (Streptococcus mitis; 25 μmol/ml)	maximal OD630 divided by control (extent of growth) (Streptococcus mutans; 5 μmol/ml)	maximal OD630 divided by control (extent of growth) (Streptococcus mutans; 10 μmol/ml)	maximal OD630 divided by control (extent of growth) (Streptococcus mutans; 20 μmol/ml)	maximal OD630 divided by control (extent of growth) (Streptococcus mutans; 25 μmol/ml)	further results
CO[C@H]1O[C@H](CO)[C@H](O)[C@H](O)[C@H]1O [α-methyl-D-galactoside]	0.9609	0.9269	1.0198	1.1007	0.7382	0.7398	0.7462	0.7395	0.9203	0.9043	0.8637	0.8498	0.9303	0.9337	0.8843	0.8855	0.9703	0.9003	0.4212	0.2492	maximal OD630 divided by control (extent of growth) (Streptococcus sanguinis [5]; 5 μmol/ml): 0.9521; maximal OD630 divided by control (extent of growth) (Streptococcus sanguinis [5]; 10 μmol/ml): 0.9343; maximal OD630 divided by control (extent of growth) (Streptococcus sanguinis [5]; 20 μmol/ml): 0.8872; maximal OD630 divided by control (extent of growth) (Streptococcus sanguinis [5]; 25 μmol/ml): 0.9294; maximal OD630 divided by control (extent of growth) (Streptococcus sobrinus; 5 μmol/ml): 0.9005; maximal OD630 divided by control (extent of growth) (Streptococcus sobrinus; 10 μmol/ml): 0.8975; maximal OD630 divided by control (extent of growth) (Streptococcus sobrinus; 20 μmol/ml): 0.8858; maximal OD630 divided by control (extent of growth) (Streptococcus sobrinus; 25 μmol/ml): 0.9052; maximal OD630 divided by control (extent of growth) (Tannerella forsythia; 5 μmol/ml): 0.9724; maximal OD630 divided by control (extent of growth) (Tannerella forsythia; 10 μmol/ml): 0.9898; maximal OD630 divided by control (extent of growth) (Tannerella forsythia; 20 μmol/ml): 0.9846; maximal OD630 divided by control (extent of growth) (Tannerella forsythia; 25 μmol/ml): 1.0112; maximal OD630 divided by control (extent of growth) (Veillonella parvula; 5 μmol/ml): 0.9160; maximal OD630 divided by control (extent of growth) (Veillonella parvula; 10 μmol/ml): 0.9528; maximal OD630 divided by control (extent of growth) (Veillonella parvula; 20 μmol/ml): 0.9141; maximal OD630 divided by control (extent of growth) (Veillonella parvula; 25 μmol/ml): 0.9326
CO[C@@H]1O[C@H](CO)[C@H](O)[C@H](O)[C@H]1O [β-methyl-D-galactoside]	1.0543	1.0046	1.0434	1.0609	0.7099	0.7723	0.7373	0.7472	0.9000	0.8909	0.9071	0.9102	0.8435	0.8256	0.9114	0.8116	0.9473	0.9083	0.7929	0.5618	maximal OD630 divided by control (extent of growth) (Streptococcus sanguinis [5]; 5 μmol/ml): 0.8787; maximal OD630 divided by control (extent of growth) (Streptococcus sanguinis [5]; 10 μmol/ml): 0.8540; maximal OD630 divided by control (extent of growth) (Streptococcus sanguinis [5]; 20 μmol/ml): 0.8629; maximal OD630 divided by control (extent of growth) (Streptococcus sanguinis [5]; 25 μmol/ml): 0.8842; maximal OD630 divided by control (extent of growth) (Streptococcus sobrinus; 5 μmol/ml): 0.8914; maximal OD630 divided by control (extent of growth) (Streptococcus sobrinus; 10 μmol/ml): 0.8818; maximal OD630 divided by control (extent of growth) (Streptococcus sobrinus; 20 μmol/ml): 0.9110; maximal OD630 divided by control (extent of growth) (Streptococcus sobrinus; 25 μmol/ml): 0.9111; maximal OD630 divided by control (extent of growth) (Tannerella forsythia; 5 μmol/ml): 0.9652; maximal OD630 divided by control (extent of growth) (Tannerella forsythia; 10 μmol/ml): 0.9920; maximal OD630 divided by control (extent of growth) (Tannerella forsythia; 20 μmol/ml): 0.9847; maximal OD630 divided by control (extent of growth) (Tannerella forsythia; 25 μmol/ml): 1.0042; maximal OD630 divided by control (extent of growth) (Veillonella parvula; 5 μmol/ml): 0.8912; maximal OD630 divided by control (extent of growth) (Veillonella parvula; 10 μmol/ml): 0.9129; maximal OD630 divided by control (extent of growth) (Veillonella parvula; 20 μmol/ml): 0.9145; maximal OD630 divided by control (extent of growth) (Veillonella parvula; 25 μmol/ml): 0.9462
